Tested on: Human umbilical vein endothelial cells (HUVECs)
Assay: Cell viability by CCK-8 assay
Assay type: cell-based
Conditions: 24 h, NapFF 10.0-200.0 μM, silk fibroin 0.1-2.0%, FIG. 9
Procedure: The cell viability was detected by CCK-8 assay. Human umbilical vein endothelial cells (HUVECs) were dispersed in a 96-well plate (at a cell concentration of 4000 cells/well) and cultured for 24 h in a 5% CO2 atmosphere at 37° C. The previous medium was replaced with a medium containing different concentrations of NapFF (10.0 μM, 20.0 μM, 50.0 μM, 100.0 μM, and 200.0 μM) and silk fibroin solutions (0.1%, 0.2%, 0.5%, 1.0%, and 2.0%), which was in turn replaced with a CCK-8 solution after 24 h. Finally, the optical density value (OD value) of the solution at 450 nm was measured on a microplate reader. The cell viability is expressed as percentage of the number of control (untreated) cells. The cell viability of the control group was set to 100% by default, and all experiments were performed in 5 replications.

## O=C(Cc1ccc2ccccc2c1)N[C@@H](Cc1ccccc1)C(=O)N[C@@H](Cc1ccccc1)C(=O)O [NapFF, 2-naphthaleneacetic acid-phenylalanine-phenylalanine]
  Cytotoxicity (cell viability, CCK-8): good biocompatibility

Reference: patent US11560455B2, “Method for rapid gelation of silk fibroin solution under physiological conditions” (SOOCHOW UNIVERSITY, priority 2017, dated 2023)
